Data on one compound can be found in article PMC7961996, “Small Immunomodulatory Molecules as Potential Therapeutics in Experimental Murine Models of Acute Lung Injury (ALI)/Acute Respiratory Distress Syndrome (ARDS)” (International Journal of Molecular Sciences, 2021).

The test system of data set [1] is hyperoxia-induced ALI mice. Description: Hyperoxia-induced ALI murine model. The data set is classed as in vivo, C57BL6/J mice. As for the experimental part:
For the mouse efficacy studies, both AVR-25 and AVR-48 were reconstituted in 0.9% sterile normal saline to give a final concentration of 10 mg/kg; 125 µL was administered intraperitoneally (IP) for hyperoxia- and LPS- induced lung injury, and IV via the lateral tail vein for CLP-induced lung injury. Imipenem (Primaxin®) was formulated in sterile 0.9% saline solution and administered subcutaneously (SC) at a dose of 5 mg/kg to mice in a 0.2 mL volume near the dorsal scapular region for CLP-induced lung injury study. LPS was dissolved in sterile 0.9% saline solution and 100 µL was administered intratracheally for the ALI study.
Three models of ALI were used in the current study: hyperoxia-, LPS-, and CLP-induced lung injury: LPS-induced ALI was induced by administering a one-time intratracheal instillation of LPS (100 µg in a volume of 100 µL). Animals were sacrificed after 24 h following LPS administration while two doses of AVR-25 and AVR-48 were administered (10 mg/kg, IP) at 4 h and 12 h following LPS dosing. Hyperoxia-induced ALI was initiated by keeping the mice in cages in airtight polypropylene chamber exposed to hyperoxia (100% oxygen) for 48 h, following a standard protocol. Two doses of AVR-25 and AVR-48 were administered (10 mg/kg, IP) at 4 h and 12 h following hyperoxia exposure, and mice were sacrificed after 48 h.
At the end of the experimental time points for all the above groups, the mice were euthanized with an overdose of a cocktail of xylazine (100 mg/kg)/ketamine (10 mg/kg, IP) and BALF and lung tissues were harvested for further analysis. Male mice were used for all the ALI experiments.
BALF was obtained from the anesthetized mice by cannulating the upper part of the trachea with a blunt 22-gauge needle and then by lavaging three times with 1.0 mL of cold PBS (pH 7.4). The fluid recovery rate was about 90%. Lavaged samples were kept on ice, and the BALF was centrifuged at 4 °C. Total cell counts in BALF were determined using the TC20 automated cell counter (Bio-Rad Laboratories, Inc., Hercules, CA, USA). The differential cell counts were performed on cytospin preparations after staining with the Hema 3 differential Staining kit (Fisher Scientific, Kalamazoo, MI, USA). Total protein concentration in the BALF was measured using the Pierce^TM BCA assay kit (Fisher Scientific Co, Houston, TX, USA), as previously described.
Lung endothelium permeability was determined by measuring the accumulation of Evans blue in the lungs, as previously described. In brief, Evans blue dye (EBD) solution (Sigma-Aldrich, Inc., St. Louis, MO, USA, 5 mg/mL) was injected into the tail vein at a concentration of 50 mg/kg before 30 min of the experimental time point. At the experimental time points, lungs were excised and weighed. EBD was extracted in 2 mL formamide kept in a water bath at 60 °C for 3 h, and the samples were centrifuged at 500 g for 10 min. The absorption of light at 595 nm was measured spectrophotometrically (Microplate reader, Bio-Rad Laboratories, Hercules, CA, USA) with the supernatants.
Interleukin (IL)-6, IL-1β, and IL-10 were quantified on BALF while E-selectin was quantified in lung homogenate using commercially available DuoSet® ELISA kits (R&D Systems, Minneapolis, MN, USA) according to the manufacturer’s instructions, as previously described. Briefly, Nalgene Nunc Maxisorp™ plates were coated overnight with antibodies to IL-6 (2 µg/mL), IL-1β (2 µg/mL) IL-10 (2 µg/mL), or E-selectin (2 µg/mL) and the following morning plates were washed and blocked for 2 h. Samples were added to the wells at various dilutions and then incubated with detection antibody for 2 h. Plates were subsequently washed, and streptavidin-HRP conjugate antibody was added to each well for 20 min. […]

Data set [2] is described as follows: Pharmacokinetic study, bronchoalveolar lavage fluid (BALF). The data set is classed as in vivo, Sprague Dawley rats. The protocol: All PK studies were also conducted with 8–10-week-old male and female Sprague Dawley rats. An additional nine animals/sex/dose were used for PK analysis and blood (approximately 0.3 mL each) was collected from each rat on days 1 and 3 of the treatment period at time points of 5, 30, 60, 90, 120, and 180 min, and 6, 12 h, and 24 h post dose that were randomized to provide a total of three samples/sex for each time point. Samples were collected by jugular venipuncture and the samples were collected into tubes containing the anticoagulant, K3EDTA. The collection of BALF was limited to the terminal time points of 6 h, 12 h, and 24 h. AVR-48 concentrations in the blood and BALF were determined using LC/MS/MS analysis developed in house. PK parameters were estimated using Phoenix pharmacokinetic software (Certara, Princeton, NJ, USA) using a non-compartmental approach consistent with the IV bolus injection.

The mark [3] stands for this setting: 10 mg/kg IP at 4 h and 12 h of hyperoxia (100% oxygen), 48 h.

With `CC(=O)N[C@H]1[C@H](Oc2ccc([N+](=O)[O-])cc2)O[C@H](CO)[C@@H](O)[C@@H]1O` [AVR-48, N-((2S,3R,4R,5S,6R)-4,5-dihydroxy-6-(hydroxymethyl)-2-(4-nitrophenoxy)tetrahydro-2H-pyran-3-yl) acetamide], in data set [1] (setting [3]), the “neutrophils infiltration into the lung (BALF)” value was “diminished” and the “total immune cells infiltration into the lung (BALF)” value is recorded as “diminished”. For the same compound, in data set [1] (10 mg/kg IP x2), the “Evans Blue dye leak concentration in the lungs” value is “diminished levels”; the “expression of lung adhesion molecules ICAM-1, VCAM-1, and E-selectin in whole lung tissue” value was “decreased expression”; the “total proteins in BALF (pulmonary edema)” value is reported as “diminished levels”. Also, the “levels of pro-inflammatory cytokines (IL-1β, IL-6) in BALF and lung tissues” value in data set [1] (10 mg/kg IP x2, 48 h, vs untreated ALI mice) is reported as “decreased levels”. In addition, the “lung injury (H&E, injury score)” value in data set [1] (10 mg/kg IP x2, 0-4 scoring) is reported as “improved lung injury”. Further, in data set [1] (10 mg/kg IP x2, ELISA, vs non-treated ALI mice), the “IL-10 levels in BALF” value was “further increase”. Also, in data set [1] (10 mg/kg IP x2, Western blot), the “expression of cleaved caspase-3 in lungs (lung cell death)” value was “reduced expression”; the “expression of endothelial AJ proteins VE-cadherin and β-catenin in whole lungs” value was “increased expression”; the “expression of phosphorylated-Src in whole lungs” value is “decreased expression”. The “AVR-48 in BALF” value in data set [2] (6 h post administration) is “measurable concentrations”. Besides, the Kp at 6 h in data set [2] (Sprague Dawley, rat, BALF (bronchoalveolar lavage fluid) relative to plasma, intravenous, 6 h time point, read-out: BALF-to-plasma ratio) fell in the range of 2.81 to 9.08. Moreover, the “AVR-48 in BALF” value in data set [2] (by 12 h) was “below the limit of detection”.
